Experimental findings from patent US9788539B2, “Platelet protection solution having beta-galactosidase and sialidase inhibitors” (Velico Medical, Inc., priority 2011, dated 2017) are described below.

Entries after “also recorded” stand apart in the source; their conditions may differ.

Experiment [1] deals with mouse platelets. Description: Survival of mouse platelets stored 20 hrs at RT in pPAS with or without DGJ after transfusion. As to conditions: 2 mM DGJ in pPAS, 30% plasma 70% pPAS, 20-hr storage at RT, vs pPAS alone. The format is in vivo. How it is done:
Materials and Methods: Blood was obtained from anesthetized 8 weeks old C57/Bl6 mice by retroorbital bleeding. Platelets and platelet poor plasma (PPP) were prepared by differential centrifugation as described. Isolated platelets were labeled with 2.5 μM of CMFDA for 15 min. Following staining, platelets were pelleted and resuspended in 500 μl of plasma, or in a mixture of 30% plasma and 70% pPAS (i.e., PPS9 formulation in Tables 1 and 3 without the 2 mM of DGJ shown in the tables) or pPAS+DGJ (2 mM) (PPS9 formulation in Tables 1 and 3). Platelets were stored for 20 hrs at room temperature and transfused into 8 weeks old syngeneic mice. Non-stored fresh platelets in plasma were used as control. Platelet survivals were determined by intravenous injections CMFDA-labeled mouse platelets, respectively. Blood was collected by retroorbital bleeding at 5 min, 2, 24, 48 and 72 hrs. The percentages of CMFDA-positive platelets were determined by flow cytometry.

Another experiment has as its system THP-1 cells. Description: Ingestion of β-galactosidase treated platelets by THP-1 cells. The format is cell-based. As to conditions: fresh human platelets treated with β-galactosidase. How it is done: FIG. 44 is a bar graph showing that […] cells ingestion of human platelets correlates with decrease in β-galactose exposure. Isolated human platelets were labeled with CM-Orange, added to THP-1 cells and incubated for 30 min at 37° C. Ingestion of fluorescently labeled control fresh room temperature platelets and platelets treated by β-galactosidase was detected using flow cytometry, as an increase in […] associated orange fluorescence.
We treated fresh isolated platelets from healthy volunteers with β-galactosidase, which cleaves terminal β-galactose from platelet surfaces.

Experiment [2] deals with platelet GPIbα and GPV receptor surface expression. The experiment in a line: Recombinant TACE-mediated GPIbα and GPV shedding from platelets. The format is cell-based, mouse.
Experiment [3] relates to mouse platelets. Description: Sialidase-induced β-galactose exposure on platelets, lectin binding by flow cytometry. It counts as cell-based.
Experiment [4] relates to mouse platelets. The experiment in a line: Surface receptor loss of mouse platelets stored at room temperature. The format is cell-based. The settings on record: mouse platelets stored at room temperature for 6 h, with fetuin (30-60% loss without).
In experiment [5] the test system is mouse platelets. The experiment in a line: Sialidase (neuraminidase)-induced loss of platelet surface receptors, flow cytometry and immunoblot. The format is cell-based.
Experiment [6] relates to mouse platelets. The experiment in a line: β-galactose exposure by FITC RCA-1 lectin binding with fetuin as competitive sialidase substrate. The format is cell-based. The settings on record: fetuin 1 mg/mL.

On to `OC[C@H]1NC[C@H](O)[C@@H](O)[C@H]1O` [DGJ, 1-deoxygalactonojirimycin], for which, in the experiment with mouse platelets [1], the “survival of the transfused platelets” value is reported as “significantly improved the survival of the transfused platelets”.

With β-galactosidase, the “ingestion of platelets by THP-1 cells compared to control platelets” value in the experiment on THP-1 cells is 4 fold.

As for “rTACE: recombinant TACE (ADAM17) metalloprotease”, in experiment [2] (platelets treated with rTACE), the “GPIbα released from platelets” value was 47%±6 and the “GPV released from platelets” value was 18%±12. Moreover, the “GPIX and αIIbβ3 released from platelets” value in experiment [2] (platelets treated with rTACE, not shown) was “negligible amounts”.

Turning to `CNC(=O)[C@H](Cc1c[nH]c2ccccc12)NC(=O)[C@@H](CC(=O)NO)CC(C)C` [GM6001], the “β-galactose exposure induced by sialidase in presence of inhibitor” value in the experiment with mouse platelets [3] is listed as “did not prevent β-galactose exposure”. For the same compound, the “receptor shedding by rTACE in presence of inhibitor” value in experiment [2] is reported as “inhibited receptor shedding”.

Turning to “fetuin: neuraminidase (NA) substrate, competitive sialidase substrate”, the “loss of GPIb and GPV” value in the experiment on mouse platelets [4] is listed as 10-20%. In addition, in the experiment with mouse platelets [5], the “loss (shedding) of platelet GPIbα and GPV induced by sialidase/neuraminidase, in presence of inhibitor” value was “completely prevented this loss”. The “RCA-1 binding to fresh platelets” value in the experiment with mouse platelets [6] (fresh platelets at room temperature) is listed as “no effect”. The “sialic acid hydrolysis (β-galactose exposure, RCA-1 binding) during platelet storage” value with mouse platelets [6] (mouse platelet rich plasma, refrigeration 48 h) is on record as “inhibits the hydrolysis of sialic acid from platelet glycans; also recorded: greatly inhibits sialic acid hydrolysis”.
